Experimental data reported in patent US20240390490A1, “PHARMACEUTICAL COMPOSITIONS FOR THE TREATMENT OF CANCERS” (Rutgers, The State University of New Jersey, priority 2021, published 2024).
Like-named read-outs stand apart in the source and are kept apart here.

Key:
MDA-MB-468 cells = assay: cells; settings: read-out: Cell Viability IC50 (μM) ± SEM
Experimental: Cells in media with vehicle treatment are considered control wells. MTT (3-(4,5-dimethyl-2-thiazolyl)-2,5-diphenyl-2H-tetrazolium bromide) was prepared as a stock solution of 5 mg/mL in 1× phosphate-buffered saline (PBS, pH 7.2). At the end of the drug treatment period (24 or 48 or 72 hours), 10 μL of MTT solution was added to each well. After incubation for 4 hours at 37° C., 100 μL of solubilizing buffer (10% sodium dodecyl sulfate dissolved in 0.01 N HCl) was added to each well. After a 15-minute incubation at 37° C., the 96-well plate was read by a plate reader at 590 nm for absorbance density values to determine the cell viability. The cell viability (percentage of control) is calculated by using the following formula: (OD of treated well (−blank))/(mean OD control well (−blank))×100. […] Drug effects on these cells were determined in quadruplicate wells in three independent experiments.

MDA-MB-231 cells [1] = assay: Clonogenic (colony formation) assay; format: cell-based, human; settings: 100 μM, 14 days
Experimental: The clonogenic assay was performed as previously described (25). Briefly, cells were suspended in culture media and were seeded into 6-well tissue culture plates at a density of 1,000 cells/well, allowed to adhere overnight, and treated with vehicle alone or a 100 μM concentration of beta-adrenergic and opioidergic drugs alone or in combination. Fresh medium and drugs were changed every 3 or 4 days for 14 days. At the end of the experiment, the cell colonies were stained with 0.5% crystal violet, subjected to image acquisition, and quantified in Adobe Photoshop (Adobe Systems, San Jose, CA). The crystal violet-stained cell colonies were extracted with 10% acetic acid and used for optical density (OD) measurements for determination of colony growth. Drug effects on these cells were determined in duplicate wells in three independent experiments.

MDA-MB-231 cells [2] = assay: Cell cycle analysis (PI staining); format: cell-based, human; settings: 100 μM
Experimental: Cell cycle analysis of breast cancer cells was carried out using propidium iodide (PI) staining protocol according to the manufacturer's instructions (Nexcelom Bioscience LLC, Lawrence, MA). […] Then, cells were harvested by trypsinization, centrifuged at 2000 rpm for 5 minutes, washed with PBS (pH 7.4), and fixed in ice cold 100% ethanol for 15 minutes. The cells were spun down and resuspended in 150 μl of PI-staining solution provided with the Cellometer PI Cell Cycle Kit. The PI-stained cells were then subjected to analysis in the Cellometer Vision instrument (Nexcelom Bioscience LLC) and the data was captured on Cellometer Vision CBA software (Nexcelom Bioscience LLC) and analyzed by FCS Express 4 software (Molecule Devices, Corp., Sunnyvale, CA). Differences in fluorescence intensity were used to determine the percentage of cells in each phase of the cell cycle and represented as histograms for control and drug-treated samples.

[3] = tested on: MDA-MB-231-cell-derived xenografts; assay: Histopathology, immunohistochemistry and western blot of xenograft tumors; format: in vivo, rat; settings: for level of E-cadherin in tumors / level of N-cadherin in tumors / levels of Snail, Slug, and Twist in tumors: immunoblotting; for level of CC3 in tumor tissue / levels of Bcl-xL and Bcl-2 in tumor tissue: western blot
Experimental: At the end of the experiment, a portion of tumor tissues was fixed in 10% neutral buffered formalin overnight and embedded in paraffin, was cut into 5-μm-thick sections, and stained with H&E according to previous publications (8). Representative areas of tumor were analyzed for the presence of tumor cells and photographs were captured under a light microscope (20× magnification) as previously described.
For protein analyses, tumor tissues from in vivo experiments, enriched NK cells from the spleen, and NK-92 MI cancer cell co-incubated samples were lysed with a buffer containing protease and phosphatase inhibitors (25 mM Tris-HCl, pH 7.4; 150 mM NaCl; 1% Nonidet P-40; 1 mM EDTA; and 5% glycerol with Pierce Halt Protease Inhibitor). Protein ([…]) from total lysate was loaded and separated on a 4-20% SDS-PAGE and transferred overnight to polyvinylidene difluoride membranes. Membranes were incubated with primary Ab for 12 hours at 4° C. in blocking buffer, 5% w/v nonfat dry milk in TBS, and 0.1% Tween 20. The following primary antibodies were purchased from Santa Cruz Biotechnology (Santa Cruz, CA): anti-perforin rabbit polyclonal (1:250), anti-granzyme B mouse monoclonal (1:200), anti-IFN-γ mouse monoclonal (1:250), anti-Snail (1:200), anti-Slug (1:200), and anti-Twist. Anti-E-cadherin (1:250), anti-N-cadherin (1:250), and anti-NKG2D goat polyclonal (1:500) were all from Abcam (Cambridge, MA). Membranes were washed and incubated with peroxidase-conjugated secondary Abs (1:5000; Vector Laboratories) for 1 hour at room temperature. Membranes were incubated with ECL western blot chemiluminescence reagent (Pierce) and exposed to x-ray film, which was developed, and densitometry was performed using Image J analysis software (National Institutes of Health). Each protein was normalized to corresponding intensities for β-actin.
Thin paraffin sections (5 μm) of tumors were stained using the ABC Elite Vectastain Kit (Vector Labs) according to the manufacturer's instructions using various primary antibodies. Details of all primary antibodies used are described above. In addition, cell proliferation-associated antigen (Ki-67; 1:200) were purchased from Abcam. After the primary antibody incubation and PBS wash, sections were incubated with peroxidase-coupled anti-rabbit Ig ImmPRESS reagent (Vector Laboratories, Inc.). Antigen localization was achieved by using the 3,3′-diaminobenzidine-peroxidase reaction, and sections were dehydrated, and cover slipped. To evaluate the immunohistochemical staining, sections were photographed using a Nikon-TE 2000 inverted microscope. Intensity of staining was categorized as negative and strongly positive (27). Brown-stained spots are immuno positive cells. Data are means±SEM obtained from 3 serial sections of 5 to 6 animals in each group.

[4] = tested on: plasma cytokines and chemokines; assay: Plasma cytokines multiplex immunoassay; format: in vivo, rat
Description: After the end of the drug treatment period, plasma samples from control and drug-treated rats were processed and used for cytokine detection. Cytokines were quantified in plasma samples using the ProcartaPlex multiplex immunoassay technology. These immunoassays are bead-based assays for protein quantification based on the principles of a sandwich Elisa with the use of Luminex® xMAP® (multianalyte profiling) technology. The Rat Cytokine & Chemokine 22-plex ProcartaPlex Panel is a preconfigured multiplex immunoassay kit that measures 22 protein targets using Luminex xMAP technology. Plasma samples were diluted with universal assay buffer (1:1) and added into a 96-well flat bottom plate to the magnetic beads. The plate was sealed and covered before incubation of 2 hours at room temperature with 500 rpm shaking. After inserting the plate into the handheld magnetic plate washer, the plate was washed 3 times using a specific wash buffer. 25 μL of detection antibody mixture was to the plate and incubated it for 30 minutes at room temperature at 500 rpm. The plate was washed 3 times. Then 50 μL of SAPE solution were added to the plate before a novel 30-minute incubation at room temperature at 500 rpm. The plate was washed 3 times. Finally, 120 μL of reading buffer were add to the plate and incubated for 5 minutes at room temperature at 500 rpm before reading and analyzing with the Luminex™ instrument (MAGPIX® xPONENT®, R&D System, ThermoFisher). Median fluorescence index (MFI) was calculated and presented.

Row | SMILES | IC50 (MDA-MB-468 cells; MDA-MB-468, 24 h) | IC50 (MDA-MB-468 cells; MDA-MB-468, 48 h) | IC50 (MDA-MB-468 cells; MDA-MB-468, 72 h) | colony formation (MDA-MB-231 cells [1]) | number of cells in G0/G1 phase (MDA-MB-231 cells [2]) | number of cells in G2/M phase (MDA-MB-231 cells [2]) | number of cells in S phase (MDA-MB-231 cells [2]) | level of E-cadherin in tumors [3] | level of N-cadherin in tumors [3] | levels of Snail, Slug, and Twist in tumors [3] | level of CC3 in tumor tissue [3] | levels of Bcl-xL and Bcl-2 in tumor tissue [3] | chemokines RANTES and MCP-1 [4] | IC50 (MDA-MB-468 cells; Homo sapiens, MDA-MB-468, 24 h) | IC50 (MDA-MB-468 cells; Homo sapiens, MDA-MB-468, 48 h) | IC50 (MDA-MB-468 cells; Homo sapiens, MDA-MB-468, 72 h) | IFN-γ [4] | inflammatory cytokines and chemokines G-CSF/CSF-3, IL-1 alpha, IL-10, IL-6, IL-5, Gro-α, TNF-α, MCP-3, and IL-17A [4]
1 | CC1(C)SSC(C)(C)[C@@H](NC(=O)[C@@H](N)Cc2ccc(O)cc2)C(=O)NCC(=O)N[C@@H](Cc2ccccc2)C(=O)N[C@H]1C(=O)O [DPDPE, (D-Pen^2, D-Pen^5)-enkephalin] | 115 ± 1.23 µM | 118 ± 1.22 µM | 120 ± 2.19 µM | moderate inhibition | reduced | increased | no significant changes | increase | decrease | reduced | increased | decreased | inhibited |  |  |  |  | 
2 | O=C1CC[C@@]2(O)[C@H]3Cc4ccc(O)c5c4[C@@]2(CCN3CC2CC2)[C@H]1O5 [NTX, 17-(cyclopropylmethyl)-4,5α-epoxy-3,14-dihydroxymorphinan-6-one] |  |  |  | moderate inhibition | reduced | increased | no significant changes |  |  |  | increased | decreased | inhibited | 122.4 ± 0.63 µM | 121 ± 1.82 µM | 120 ± 1.23 µM | elevated | 
3 | CC(C)NCC(O)COc1cccc2ccccc12 (stereo not drawn) [PRO, propranolol] |  |  |  | moderate inhibition | reduced | increased | no significant changes | increase | decrease | reduced | increased | decreased | inhibited |  |  |  | elevated | inhibited
